This note sets out measurements from US8680129B2, “Compounds, composition, methods, targets for cancer therapy” (priority 2008, dated 2014).

pIC50: −log10 of the molar value. “And” between values parts separate entries of the source, which are not always exact repeats. Equal entries are not always repeated. Where two headings read alike, the source gives them in different places.

The test system of assay [1] is ROS generation in HT1080 cells. Briefly: ROS labeling with CM-H2-DCFDA (imaging). It counts as cell-based, human. The conditions noted are these: cells transfected with pUC19, no exposure to WST-1. As for the experimental part:
Methods: HT1080 cells were cultured in cover slices and transfected with pUC19 and treated with IKK inhibitor III in sequential. Following these treatment, the cells, thus, treated, were either labeled with CM-H2-DCFDA, a fluorescence dye that can labeling ROS in cells, and, then, treated with WST-1 for 30 minutes (FIG. 23A) or treated with WST-1 for 2 hours and then labeled with CM-H2-DCFDA (FIG. 23-B). The results were recorded by a digital camera with Spotlight software. Manuel exposure levels were used to maintain the same exposure level for comparison.

For assay [2], the system named is HT1080 cells. Description: siRNA or Puc19 transfection, IKK inhibitor III and WST-1r triple combination, CCK8. The conditions noted are these: IKK inhibitor 24 hours, then WST-1r 4 hour. The assay is classed as cell-based, human. As for the experimental part: Method: HT1080 cells were transfected with siRNA#3, or the siRNA targeting MAGI3, and TMEM182 that were derived from Puc19 DNA sequence and the siRNAs that targeting the corresponding genes that are the targets of the Puc19 derived siRNAs for 24 hours, then, treated with IKK inhibitor III for 24 hours followed by adding WST-1r for another 4 hour. After the 4 hours WST-1r treatment, cells in culture were changed to normal growth medium for 24 hours. Cell viability were monitored by CCK8 Kit every 24 hours. Data were normalized to % of untreated control cells. AllStar siRNA was used as negative siRNA trasnfection control. Puc19 DNA vector transfection was used as positive control.
Data label: Untreated control: 0 Ctrl, WST-1r only: 10 Ctrl, pUC19 transfected cells: 0 p9, pUC19 transfected and WST-1r treated: 10 p9, AllStar negative contrl siRNA transfected: 0 AllStar, AllStar transfected and WST-1r treated: 10 AllStar, siRNA#3 transfected: 0 siRNA#3, siRNA#3 transfcted and WST-1r treated: 10 siRNA#3, siRNAMAGI3 transfected: 0 MAGI3, siRNA MAGI3 transfcted and WST-1r treated: 10 MAGI3, siRNATMEM182 transfected: 0 TMEM182, siRNATMEM182 transfcted and WST-1r treated: 10 TMEM182,

Assay [3] deals with T294 human melanoma cells. Briefly: WST-1r then IKK inhibitor III, cell viability by CCK8. The following applies: WST-1r 1% and 3% 4 hours, then BMS345541 3 and 10 μM 24 hours; combination 3% WST-1r and 10 μM BMS345541. It counts as cell-based. As for the experimental part: (§1) Method: SK-Mel-5 and T294 human melanoma cells were treated with WST-1r at 1% and 3% final concentration respectively as indicated for 4 hours, then, removed WST-1r by changing to normal growth medium and added IKK inhibitor III for another 24 hours. After 24 hours treatment with 3 μM and 10 μM IKK inhibitor III respectively as indicated, cells were changed to grow in normal growth medium for 48 hours before measuring cell viability by CCK8 Kit.

In assay [4] the test system is SK-Mel-5 human melanoma cells. The description is as above. The assay is classed as cell-based. The conditions noted are these: WST-1r 1% and 3% 4 hours, then BMS345541 3 and 10 μM 24 hours; combination 3% WST-1r and 10 μM BMS345541. As for the experimental part:
as §1

Assay [5] deals with HT1080 cells. Briefly: DNA transfection, IKK inhibitor III and WST-1 combination, cell viability by CCK8. The assay is classed as cell-based, human. As for the experimental part:
Methods: HT1080 cells were cultured in 96 well plates and transfected with one of the pUC19, pcDNA3, IKK1-KA, IKK1-KA+PUC19, or pcDNA3+pUC19 DNA vectors for 24 hours followed with treatment of IKK Inhibitor IIII at 3-30 μM for another 24 hours and, then, treated with 10% WST-1 for 4 hours and cultured overnight before detection. The same treatments of cells were measured at 24, 48 and 96 hours after WST-1 treatment. Cell viability was measured by Cell Count Kit 8 (CCK8).

In assay [6] the test system is ROS generation in UM-SCC6 cells. Briefly: Dose response of ROS generation (CM-H2-DCFDA fluorescence). The assay is classed as cell-based, human. As for the experimental part:
Method: UM-SCC6 cells were labeled with 10 μM CM-H2-DCFDA for 15 minutes and then treated with WST-1r or CCK8 at the indicated amounts in combination with variable doses of apigenin (A) or IKK Inhibitor III (B) for 4 hours. Fluorescence at Ex485/Em535 were measured for detecting ROS generation that labeled by the CM-H2-DCFDA.

For assay [7], the system named is UM-SCC6 cells. Briefly: mPMS dose-response with WST-1c and apigenin, cell viability. The assay is classed as cell-based, human. The conditions noted are these: for pIC50: read-out: mPMS1050. As for the experimental part:
(§2) Method: A & B: HT1080 (FIG. 16A) and UM-SCC6 (FIG. 16B) cells were treated with variable concentrations of mPMS as indicated in combination with 1 mM WST-1c and 10, 30 or 100 μM apigenin for 4 hours and, then, changed to normal growth medium for another 24 hours. Cell viabilities were measured by CCK8 Kit. 1 mM WST-1 only, 0.12 mM mPMS only and 10% WST-1r were used as parallel control. AP 0: Untreated Control, AP 10: 10 μM Apigenin, AP 30: 30 μM Apigenin, AP 100: 100 μM Apigenin.

Assay [8] relates to HT1080 cells. The assay is described as above. The assay is classed as cell-based, human. The conditions noted are these: mPMS variable with 1 mM WST-1c and 10, 30 or 100 μM apigenin. As for the experimental part:
as §2

Assay [9] has as its system HEKa, SK-Mel-5, Cal27, UM-SCC6 and HT1080 cells. Description: Differential cellular responses to mPMS, cell viability, all lines. It counts as cell-based, human. The conditions noted are these: 30, 40 or 50 μM mPMS 4 hours, then 24 hours. As for the experimental part: (§3) Non cancer human keratinocyte (HEKa), SK-Mel-5 human malonoma cell line (SK5), human head and neck cancer cell Cal27 line (Cal27) and UM-SCC6 line (SCC6) cells and human soft tissue sarcoma cell line HT1080 (HT1080) were treated with 30, 40 or 50 μM mPMS for 4 hours and then cultured in normal growth medium for another 24 hours. Cell viabilities were measured with CCK8 kit.

Assay [10] relates to UM-SCC6 cells. Description: WST-3 with or without mPMS plus apigenin, cell viability. It counts as cell-based, human. The conditions noted are these: 30 μM mPMS added to 0.1 mM WST-3 and 30 μM apigenin. As for the experimental part:
(§4) Method: UM-SCC6, HT1080, Cal127, SK-Mel-5, and HEKa cells were treated with 0.1 mM WST-3 plus 30 μM mPMS, or WST-3 only, or untreated control in combination with 10 or 30 μM apigenin for 4 hours and, then, changed to normal growth medium and remained culture in this medium for another 24 hours. After the 24 hours culture, cell viabilities were measured with CCK8 Kit. Data were normalized to % of untreated control cells.

For the next assay, the system named is Cal27 cells. Described as above. It counts as cell-based, human. The following applies: 30 μM mPMS added to 0.1 mM WST-3 and 30 μM apigenin. As for the experimental part: as §4
Assay [11] concerns Cal27, UM-SCC6 and HT1080 cells. Description: Differential cellular responses to mPMS, cell viability. It counts as cell-based, human. The following applies: Cal27, UM-SCC6 and HT1080 cells 'respectively', only two values printed; read-out: 1050 of mPMS. As for the experimental part: as §3
For assay [12], the system named is non cancer human keratinocyte (HEKa). The assay is described as above. The assay is classed as cell-based. As for the experimental part:
as §3

`Cc1ccc2nc(NCCN)c3ncc(C)n3c2c1` [IKK inhibitor III]: in assay [1], the “labeled ROS” value is reported as “IKK inhibitor III dose dependent labeled ROS”. The cell death entry in the assay on HT1080 cells [2] is on record as “dose dependent cell death”; in assay [3] it was “dose dependent increase of cell deaths”; in [4], “dose dependent increase of cell deaths”. For the same molecule, the “cell death by morphology examination” value with HT1080 cells [5] (30 μM, 24 hours after the WST-1 treatment) is listed as “majority of the 30 μM IIKK inhibitor III treated cells died”. In addition, in the assay with HT1080 cells [5] (cells transfected with any of the DNA vectors, IKK inhibitor III 3-30 μM, 24, 48 and 96 hour after WST-1 treatment, vs non transfected control), the “induction of cell death” value was “significant IKK inhibitor III dose dependent induction of cell death”. The ROS levels entry in [6] (5 μM IKK Inhibitor, alone and with WST-1r) is “increased ROS levels”; in [6] (10 μM IKK Inhibitor III, alone and with WST-1r), “decreased it”; in assay [6] (IKK Inhibitor III combined with CCK8), “no combined effect with CCK8 on ROS levels”.

Consider “1-methoxy-5-methyl-phenazinium methyl sulfate [mPMS]”, for which the pIC50 in the assay on UM-SCC6 cells [7] (combination of apigenin 100 μM and mPMS+WST-1) was 4.52; in the assay on UM-SCC6 cells [7] (untreated control cells (no apigenin)), 4.10; in [11], 4.70 and 4.52; in assay [12] (mPMS 4 hours, then 24 hours) it was 4.30. In addition, the cell death entry in the assay with UM-SCC6 cells [7] (mPMS variable with 1 mM WST-1c and 10, 30 or 100 μM apigenin) was “dose dependent cell death”; with HT1080 cells [8], “dose dependent cell death”. In [9], the “cell death and sensitivity to mPMS” value was “mPMS dose dependent cell death and differential sensitivities to mPMS treatment”. Further, the “effect of adding mPMS on cell death” value in the assay on UM-SCC6 cells [10] and with Cal27 cells was “further synergize the cell death” throughout. Also, in assay [12] (compared with the cancer cell lines), the “sensitivity to mPMS treatment” value is on record as “least sensitivity to mPMS treatment”.
